A word on the Ki: it is the dissociation constant of the complex between target and ligand, obtained from inhibition or displacement. The IC50 is the concentration at which inhibition is half-maximal.

Numbering of substitutions follows the chain as printed. Where “and” joins values, the source holds several entries; their conditions need not be identical. Identical values can stand only once.

Common to all, as to assay type: cell-based
One test has as its target T1, CysLT1R-WT (Homo sapiens, UniProt Q9Y271).
T1 construct: expressed in transfected cells; host or cells: HEK293 (ATCC CRL-1573), transient transfection with Lipofectamine 3000
T1 sequence (Q9Y271 1-337): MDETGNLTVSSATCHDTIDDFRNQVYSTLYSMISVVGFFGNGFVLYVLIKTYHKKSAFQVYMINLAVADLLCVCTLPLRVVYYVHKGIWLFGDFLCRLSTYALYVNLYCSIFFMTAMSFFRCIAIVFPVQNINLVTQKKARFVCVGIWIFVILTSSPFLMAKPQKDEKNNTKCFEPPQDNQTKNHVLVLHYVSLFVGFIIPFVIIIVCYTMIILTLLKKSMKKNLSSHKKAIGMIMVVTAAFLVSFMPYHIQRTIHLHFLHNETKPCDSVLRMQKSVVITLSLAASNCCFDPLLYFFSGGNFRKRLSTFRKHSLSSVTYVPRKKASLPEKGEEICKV
As to the kind of experiment: IP1 production assay, Schild analysis: fixed BRI-12359 then range of LTD4. On the procedure: (§1) For this assay, we used the Cisbio IP-One kit as previously described. […] At 48 h post-transfection, the media was removed and the cells were washed with fresh Hank’s Balanced Salt Solution (HBSS). […] After compound stimulation, the cells were incubated for 1 h at 37 °C and stimulated with IP1-D2 and Ab-Crypt reagents in Lysis Buffer. The cells were then incubated at room temperature for an additional hour. […] Normalized data were plotted using either the three-parameter or four-parameter EC50/IC50 fits of GraphPad Prism 8 (San Diego). […] Data represent the means ± SEM of at least three independent experiments performed in quadruplicate.

The target in another test is T2, CysLT2R-WT (Homo sapiens, UniProt Q9NS75).
T2 construct: expressed in transfected cells; host or cells: HEK293 (ATCC CRL-1573), transient transfection with Lipofectamine 3000
T2 sequence (Q9NS75 1-346): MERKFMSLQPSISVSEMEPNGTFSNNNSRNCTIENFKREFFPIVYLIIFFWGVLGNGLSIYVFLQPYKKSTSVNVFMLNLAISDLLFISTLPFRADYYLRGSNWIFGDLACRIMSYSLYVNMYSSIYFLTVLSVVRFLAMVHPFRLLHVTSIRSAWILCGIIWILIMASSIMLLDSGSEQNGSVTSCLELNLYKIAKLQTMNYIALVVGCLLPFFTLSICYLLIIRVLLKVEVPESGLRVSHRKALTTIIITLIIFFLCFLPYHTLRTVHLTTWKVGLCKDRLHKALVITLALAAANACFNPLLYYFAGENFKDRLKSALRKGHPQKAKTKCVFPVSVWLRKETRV
The test is described as above. The method, then:
as §1

Test [1] concerns the target T3, wild-type CysLT2R (Homo sapiens, UniProt Q9NS75).
T3 construct: expressed in transfected cells; host or cells: HEK293 (ATCC CRL-1573), transient transfection with Lipofectamine 3000
T3 sequence (Q9NS75 1-346): T2 sequence (Q9NS75 1-346)
Nature of the test: IP1 production assay, antagonist mode, LTC4 (EC80) as agonist. The following applies: HEK293, wild-type CysLT2R; LTC4 at EC80. On the procedure: (§2) All 139 selected compounds were screened in a functional assay measuring IP1 production as an indicator of Gαq activation. For this assay, we used the Cisbio IP-One kit as previously described. Human Embryonic Kidney (HEK) 293 cells (ATCC CRL-1573) between passages 5 and 25 were seeded onto poly-L-Lysine-coated 384-well plates at 20,000 cells/well and transfected with 30 ng of cDNA coding for the wild-type CysLT1R or CysLT2R receptors or for the CysLT2R mutant L129Q, using the Lipofectamine 3000 (Thermo Fisher Scientific) transfection agent. At 48 h post-transfection, the media was removed and the cells were washed with fresh Hank’s Balanced Salt Solution (HBSS). […] First, all 139 selected compounds were screened at a 30 µM concentration in both the agonist and antagonist mode in cells transiently expressing the wildtype CysLT1R or CysLT2R receptors. […] For CysLT1R, the compounds retained were BRI-12328, BRI-12334, BRI-12359, BRI-12410, BRI-12411, BRI-12417, BRI-12424, BRI-12435, BRI-12450, and BRI-12458; for CysLT2R, these were BRI-12328, BRI-12334, BRI-12359, BRI-12401, BRI-12402, BRI-12405, BRI-12410, BRI-413, BRI-12417, BRI-12424, BRI-426, BRI-427, BRI-450, BRI-453, BRI-454, BRI-458, and BRI-466. These hits were again tested in the antagonist mode with compound concentrations ranging from 1.56 µM to 100 µM, at 2-fold concentration intervals. The three best hits (BRI-12359, BRI-417, and BRI-424) were also tested using the LTC4 ligand (EC80 concentration) and in cells transiently expressing the constitutively active CysLT2R mutant L129Q. […] After compound stimulation, the cells were incubated for 1 h at 37 °C and stimulated with IP1-D2 and Ab-Crypt reagents in Lysis Buffer. The cells were then incubated at room temperature for an additional hour. The plate was read on a Tecan Genios Pro plate reader using a HTRF (homogeneous time-resolved fluorescence) filter set (λex = 320 nm, λem = 620 and 655 nm). Normalized data were plotted using either the three-parameter or four-parameter EC50/IC50 fits of GraphPad Prism 8 (San Diego). […] Data represent the means ± SEM of at least three independent experiments performed in quadruplicate. For the additional antagonist experiments performed with BRI-12359, we performed Schild analysis in order to determine pA2 values.

Test [2] concerns the target T4, wild-type CysLT1R (Homo sapiens, UniProt Q9Y271).
T4 construct: expressed in transfected cells; host or cells: HEK293 (ATCC CRL-1573), transient transfection with Lipofectamine 3000
T4 sequence (Q9Y271 1-337): T1 sequence (Q9Y271 1-337)
The test is described as above. As to conditions: HEK293, wild-type CysLT1R, LTC4 at EC80. On the procedure:
as §2

For test [3], the target named is T3, wild-type CysLT2R. Nature of the test: IP1 production assay, antagonist mode, co-stimulation with EC80 LTD4.
Test [4] deals with T4, wild-type CysLT1R. Described as above.
The next test deals with T5, CysLT2R mutant L129Q (Homo sapiens, UniProt Q9NS75, L129Q).
T5 construct: expressed in transfected cells; host or cells: HEK293 (ATCC CRL-1573), transient transfection with Lipofectamine 3000
T5 sequence (Q9NS75 1-346 L129Q): T2 sequence (Q9NS75 1-346) with L129Q
Nature of the test: IP1 production assay, constitutively active mutant, direct compound stimulation (inverse agonism). On the procedure: as §2
This effect would be particularly interesting in the case of the L129Q CysLT2R mutant identified in uveal melanoma patients. We tested these three compounds in the functional IP1 assay using cells transiently expressing the L129Q CysLT2R mutant, directly stimulated with a range of compound concentrations (1.6 to 100 μM).

With `NC(=O)c1ccsc1NC(=O)CSc1nnc(-c2c[nH]c3ccccc23)o1` [BRI-12359], the Kb was found to be 0.34 ± 0.09 µM at CysLT1R-WT and 105 ± 37 µM on CysLT2R-WT. Further, the “pA2 ± SEM” value on CysLT1R-WT (Schild analysis, CysLT1R-WT, LTD4) is recorded as 6.5 ± 0.1 −log; on CysLT2R-WT (Schild analysis, CysLT2R-WT, LTD4), 4.0 ± 0.2 −log. Besides, the “CysLT2R (LTC4) % Max Inhibition ± SEM” value at wild-type CysLT2R [1] was determined as 65 ± 11%. Moreover, the “CysLT1R (LTC4) % Max Inhibition ± SEM” value on wild-type CysLT1R [2] is 105 ± 7%. Further, the Ki at wild-type CysLT1R [2] (functional Ki by Cheng-Prusoff, read-out: CysLT1R (LTC4) Ki ± SEM) was 0.7 µM and 0.72 µM; at wild-type CysLT2R [3], 6.46 ± 0.43 µM; at wild-type CysLT1R [4], 1.03 ± 0.28 µM. Also, the remaining activity at 30 µM on wild-type CysLT2R [3] was 36.2%; on wild-type CysLT1R [4] it was 5.59%. Further, on wild-type CysLT2R [3] (HEK293, compound 30 µM, LTD4 at EC80, HEK293, wild-type CysLT2R, read-out: inhibition of LTD4-induced IP1 production, single-concentration screen), the inhibition at 30 µM is no less than 50%. Further, the Emax on wild-type CysLT2R [3] (HEK293, read-out: CysLT2R (LTD4) % Max Inhibition ± SEM) worked out at 92 ± 15%; on wild-type CysLT1R [4] (HEK293, read-out: CysLT1R (LTD4) % Max Inhibition ± SEM), 121 ± 13%. For the same molecule, the “extent of inhibition of LTD4-induced response at CysLT2R (in words)” value on wild-type CysLT2R [3] (antagonist mode, 1.5 to 100 µM) is “fully abolished”. For the same molecule, the “extent of inhibition of LTD4-mediated response at CysLT1R (in words)” value at wild-type CysLT1R [4] (antagonist mode, 1.5 to 100 µM) is given as “completely inhibit”. Further, on CysLT2R mutant L129Q (100 μM compound), the “inhibition of IP1 production by CysLT2R L129Q mutant (in words)” value is given as “practically full inhibition”. Besides, on CysLT2R mutant L129Q (HEK293 transiently expressing CysLT2R L129Q, WT non-stimulated = 0%, L129Q non-stimulated = 100%), the “% max inhibition ± SEM of constitutive IP1 accumulation” value turned out to be 82 ± 11%. Further, the IC50 on CysLT2R mutant L129Q (HEK293 transiently expressing CysLT2R L129Q, compound 1.6 to 100 μM, no agonist, read-out: IC50 ± SEM, inhibition of constitutive IP1 accumulation) is 30 to 40 µM and 32 µM.

The record behind these values is PMC7761830, “Structure-Based Virtual Screening of Ultra-Large Library Yields Potent Antagonists for a Lipid GPCR” (Biomolecules, 2020).
